“And” between values parts separate entries of the source, which are not always exact repeats. Equal entries are not always repeated.
Experiments:
[1] = target: T1, Human recombinant Top1 (Homo sapiens, UniProt P11387); assay: Topoisomerase I-mediated DNA cleavage reactions; type: biochemical; design: key to activity of the compounds to produce Top1-mediated DNA cleavage: +: weak activity; ++ and +++: moderate activity; ++ and +++: moderate activity; ++++: similar activity as 1 μM camptothecin; conditions: for Top1 inhibitory activity in Top1-mediated DNA cleavage assay: semi-quantitative scale from 0 to ++++, relative to CPT at 1 μM; for activity of the compounds to produce Top1-mediated DNA cleavage: semiquantitative, tested at 0.1 μM, 1 μM, 10 μM, 100 μM, relative to 1 μM camptothecin
T1 construct: made in house
T1 sequence (P11387 1-765): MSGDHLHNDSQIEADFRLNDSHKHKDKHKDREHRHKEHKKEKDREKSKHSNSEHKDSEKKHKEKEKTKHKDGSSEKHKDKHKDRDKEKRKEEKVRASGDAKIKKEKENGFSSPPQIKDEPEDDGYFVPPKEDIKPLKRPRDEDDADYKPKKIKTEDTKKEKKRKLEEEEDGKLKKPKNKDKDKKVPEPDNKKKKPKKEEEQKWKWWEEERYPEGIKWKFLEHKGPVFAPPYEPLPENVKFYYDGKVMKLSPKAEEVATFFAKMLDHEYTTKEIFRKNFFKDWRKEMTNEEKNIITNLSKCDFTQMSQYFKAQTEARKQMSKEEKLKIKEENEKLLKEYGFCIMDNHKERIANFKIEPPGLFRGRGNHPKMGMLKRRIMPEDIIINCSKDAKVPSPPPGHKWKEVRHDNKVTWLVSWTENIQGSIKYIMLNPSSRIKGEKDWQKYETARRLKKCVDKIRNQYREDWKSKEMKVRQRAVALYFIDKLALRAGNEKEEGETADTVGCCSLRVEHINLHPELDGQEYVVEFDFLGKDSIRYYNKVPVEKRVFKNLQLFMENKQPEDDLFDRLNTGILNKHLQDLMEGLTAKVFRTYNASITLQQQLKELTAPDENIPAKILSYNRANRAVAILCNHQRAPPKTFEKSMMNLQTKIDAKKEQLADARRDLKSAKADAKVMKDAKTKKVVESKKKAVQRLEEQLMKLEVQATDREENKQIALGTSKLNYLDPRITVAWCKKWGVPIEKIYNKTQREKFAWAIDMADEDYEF
Protocol: Topoisomerase I-Mediated DNA Cleavage Reactions. Human recombinant Top1 was purified from Baculovirus as described previously.^34 The 161 bp fragment from pBluescript SK(−) phagemid DNA (Stratagene, La Jolla, Calif.) was cleaved with the restriction endonucleases PvuII and HindIII (New England Biolabs, Beverly, Mass.) supplied in NE buffer 2 (50 μL reactions) for 1 h at 37° C., and separated by electrophoresis in a 1% agarose gel made in 1×TBE buffer. The 161 bp fragment was eluted from the gel slice using the QIAEX II kit (QIAGEN Inc., Valencia, Calif.). Approximately 200 ng of the fragment was 3′-end labeled at the HindIII site by fill-in reaction with [alpha-^32P]-dGTP and 0.5 mM dATP, dCTP, and dTTP, in React 2 buffer (50 mM Tris-HCl, pH 8.0, […], 50 mM NaCl) with 0.5 unit of DNA polymerase I (Klenow fragment). Unincorporated ^32P-dGTP was removed using mini Quick Spin DNA columns (Roche, Indianapolis, Ind.), and the eluate containing the 3′-end-labeled 161 bp fragment was collected. Aliquots (approximately 50,000 dpm/reaction) were incubated with topoisomerase I at 22° C. for 30 min in the presence of the tested drug. Reactions were terminated by adding SDS (0.5% final concentration). The samples (10 μL) were mixed with 30 μL of loading buffer (80% formamide, 10 mM sodium hydroxide, 1 mM sodium EDTA, 0.1% xylene cyanol, and 0.1% bromophenol blue, pH 8.0). Aliquots were separated in denaturing gels (16% polyacrylamine, 7 M urea). Gels were dried and visualized by using a Phosphoimager and ImageQuant software (Molecular Dynamics, Sunnyvale, Calif.). Each gel included a sample of DNA alone, DNA with only the drug, and DNA with Top I without the drug. The compounds described herein were tested at concentrations of 0.1 μM, 1 μM, 10 μM, 100 μM. The activity of the compounds to produce Top1-mediated DNA cleavage is expressed semiquantitatively as follows: +: weak activity; ++ and +++: moderate activity; ++++: similar activity as 1 μM camptothecin. Results: 33, 0; 34, 0; 32, ++; 31, +++; 30, +; 29, +; 28, 0; and 19, 0.
Biological Results.All of the target compounds were tested for induction of DNA damage in Top1-mediated DNA cleavage assays. The results of this assay are designated relative to the Top1 inhibitory activity of CPT and expressed in semi-quantitative fashion on the scale from 0, no detectable activity, to ++++, similar activity to that of compound 1 at a concentration of 1 μM. […] Compounds 29 and 30, containing an N-(3-morpholinylpropyl) or an N-(3-imidazolylpropyl), respectively were Top1 inhibitors, but only at the lower + level. Without being bound by theory, it is believed that the loss of Top1 inhibitory activity with expansion of the five-membered indenone ring of the indenoisoquinoline to the six-membered ring of compounds described herein might result from the decreased overall solubility, especially for 14, 19, and 28, rather than differences in intercalation between DNA base pairs at the Top1 cleavage site. With 29 and 30, incorporation of amines increased water solubility and affinity toward DNA, possibly due to attraction of their positively charged protonated amines with the phosphates of the DNA backbone.

[2] = system: K-562; assay: NCI screen antiproliferative activity, leukemia K-562; type: cell-based; conditions: Homo sapiens, K562, concentration for 50% growth inhibition
Protocol: (§1) The antipoliferative activity of each compound was tested against 55 different human cancer cell lines in the National Cancer Institute screen.^32, 33 The chlorodibenzonaphthyridinone 32 bearing a morpholinopropyl chain on the lactam nitrogen was cytotoxic to human cancer cells at low micromolar concentrations. The cytotoxicities of 32 in selected cell lines are presented in Table 1, along with the mean graph midpoint value of 5.6 μM. In general, cytotoxicity GI50 values appeared to be in the low micromolar range, although 32 was particularly cytotoxic in the leukemia K-562 and RPMI-8226 cell lines, the ovarian IGROV1 cancer cell line, the renal UO-31 cancer cell line, and the breast MCF7 cancer cell line.

[3] = system: SF-539; assay: NCI screen antiproliferative activity, CNS SF-539; type: cell-based; conditions: Homo sapiens, concentration for 50% growth inhibition
Protocol: as §1

[4] = system: UO-31; assay: NCI screen antiproliferative activity, renal UO-31; type: cell-based; conditions: Homo sapiens, concentration for 50% growth inhibition
Protocol: as §1

[5] = system: MCF7; assay: NCI screen antiproliferative activity, breast MCF7; type: cell-based; conditions: Homo sapiens, concentration for 50% growth inhibition
Protocol: as §1

[6] = system: all human cancer cell lines successfully tested; assay: NCI screen mean graph midpoint for growth inhibition; type: cell-based; conditions: mean over all human cancer cell lines successfully tested
Protocol: as §1

[7] = system: COLO 205; assay: NCI screen antiproliferative activity, colon COLO 205; type: cell-based; conditions: Homo sapiens, concentration for 50% growth inhibition
Protocol: as §1

[8] = system: UACC-62; assay: NCI screen antiproliferative activity, melanoma UACC-62; type: cell-based; conditions: Homo sapiens, concentration for 50% growth inhibition
Protocol: as §1

[9] = system: RPMI-8226; assay: NCI screen antiproliferative activity, leukemia RPMI-8226; type: cell-based; conditions: Homo sapiens, concentration for 50% growth inhibition
Protocol: as §1

[10] = Solubility in organic solvents; type: physicochemical; conditions: relative to their precursors 14 and 29
[11] = system: SN12C; assay: NCI screen antiproliferative activity, renal SN12C; type: cell-based; conditions: Homo sapiens, concentration for 50% growth inhibition
Protocol: as §1

[12] = system: DU-145; assay: NCI screen antiproliferative activity, prostate DU-145; type: cell-based; conditions: Homo sapiens, concentration for 50% growth inhibition
Protocol: as §1

[13] = system: OVCAR-3; assay: NCI screen antiproliferative activity, ovarian OVCAR-3; type: cell-based; conditions: Homo sapiens, concentration for 50% growth inhibition
Protocol: as §1

[14] = system: HCT-116; assay: NCI screen antiproliferative activity, colon HCT-116; type: cell-based; conditions: Homo sapiens, concentration for 50% growth inhibition
Protocol: as §1

[15] = system: HOP-62; assay: NCI screen antiproliferative activity, lung HOP-62; type: cell-based; conditions: Homo sapiens, concentration for 50% growth inhibition
Protocol: as §1

[16] = system: IGROV1; assay: NCI screen antiproliferative activity, ovarian IGROV1; type: cell-based; conditions: Homo sapiens, IGROV-1, concentration for 50% growth inhibition
Protocol: as §1

[17] = Top1-mediated DNA fragmentation pattern, compared with indenoisoquinolines

COc1cc2c(OC)nc3c4ccccc4nc(OC)c3c2cc1OC [Compound 34, 6,8,9,11-Tetramethoxydibenzo[c,h][1,6]naphthyridine]
Top1 inhibitory activity in Top1-mediated DNA cleavage assay [1]: loss of activity
activity of the compounds to produce Top1-mediated DNA cleavage [1]: 0

COc1cc2c(Cl)nc3c4ccccc4nc(Cl)c3c2cc1OC [Compound 33, 6,11-Dichloro-8,9-dimethoxydibenzo[c,h][1,6]naphthyridine]
Top1 inhibitory activity in Top1-mediated DNA cleavage assay [1]: loss of activity
activity of the compounds to produce Top1-mediated DNA cleavage [1]: 0

COc1cc2c(=O)n(C)c3c4ccccc4[nH]c(=O)c3c2cc1OC [Compound 14, 8,9-Dimethoxy-5-methyldibenzo[c,h][1,6]naphthyridine-6,11(5H,12H)-dione]
Top1 inhibitory activity in Top1-mediated DNA cleavage assay [1]: no detectable inhibition and 0

COc1cc2c(=O)n(CCCn3ccnc3)c3c4ccccc4[nH]c(=O)c3c2cc1OC [Compound 30, 5-(3-(1H-Imidazol-1-yl)propyl)-8,9-dimethoxydibenzo[c,h][1,6]-naphthyridine-6,11(5H,12H)dione]
activity of the compounds to produce Top1-mediated DNA cleavage [1]: +

COc1cc2c(=O)n(CCCN3CCOCC3)c3c4ccccc4nc(Cl)c3c2cc1OC [Compound 32, 11-Chloro-8,9-dimethoxy-5-(3-morpholinopropyl)dibenzo[c,h][1,6]-naphthyridin-6(5H)-one]
GI50 [2]: 0.2 µM
GI50 [3]: 12.3 µM
GI50 [4]: 0.02 µM
GI50 [5]: 0.4 µM
MGM (mean GI50 across cell lines) [6]: 5.6 µM
GI50 [7]: 0.33 µM
GI50 [8]: 6.8 µM
GI50 [9]: 0.1 µM
solubilities in solvents like DMSO, methanol and chloroform [10]: increased substantially
DNA cleavage sites with significant band intensity ([1]; Top1-mediated DNA fragmentation pattern): only bands for cleavages at the 97 and 119 sites are intense enough to be significant
activity of the compounds to produce Top1-mediated DNA cleavage [1]: ++
GI50 [11]: 13.2 µM
GI50 [12]: 10.5 µM
GI50 [13]: 6.3 µM
GI50 [14]: 4.16 µM
GI50 [15]: 4.7 µM
melting point: 185 to 190 °C (dec.)
GI50 [16]: 0.03 µM

COc1cc2c(=O)n(CCCN3CCOCC3)c3c4ccccc4[nH]c(=O)c3c2cc1OC [Compound 29, 8,9-Dimethoxy-5-(3-morpholinopropyl)dibenzo[c,h][1,6]naphthyridine-6,11(5H,12H)-dione]
activity of the compounds to produce Top1-mediated DNA cleavage [1]: +

C=CCn1c(=O)c2cc(OC)c(OC)cc2c2c(=O)[nH]c3ccccc3c21 [Compound 19, 5-Allyl-8,9-dimethoxydibenzo[c,h][1,6]naphthyridine-6,11(5H,12H)-dione]
Top1 inhibitory activity in Top1-mediated DNA cleavage assay [1]: no detectable inhibition
activity of the compounds to produce Top1-mediated DNA cleavage [1]: 0

COc1cc2c(=O)n(CCCO)c3c4ccccc4[nH]c(=O)c3c2cc1OC [Compound 28, 5-(3-Hydroxypropyl)-8,9-dimethoxydibenzo[c,h][1,6]naphthyridine-6,11(5H,12H)-dione]
Top1 inhibitory activity in Top1-mediated DNA cleavage assay [1]: no detectable inhibition
activity of the compounds to produce Top1-mediated DNA cleavage [1]: 0

COc1cc2c(=O)n(C)c3c4ccccc4nc(Cl)c3c2cc1OC [Compound 31, 11-Chloro-8,9-dimethoxy-5-methyldibenzo[c,h][1,6]naphthyridin-6(5H)-one]
solubilities in solvents like DMSO, methanol and chloroform [10]: increased substantially
cleavage band intensity at base pair 97 [1, 17]: more intense
cleavage band intensity at base pairs 44 and 68 [1, 17]: weak
activity of the compounds to produce Top1-mediated DNA cleavage [1]: +++

Reference: patent publication US9073920B2, “Substituted dibenzonaphthyridines, pharmaceutical uses thereof and processes therfor” (Purdue Research Foundation, priority 2010, dated 2015)
